pIC50: −log10 of the molar value.
molecular target: T1, USP25 (USP25-His6, Boston Biochem E-546) (Homo sapiens, UniProt Q9UHP3); experiment: Ubiquitin-Rhodamine 110 Assay for USP25 Activity, Example A-2; format: biochemical; settings: Ubiquitin-Rhodamine 110 assay, Example A-2; read-out: USP25 A-2 IC50 range
T1 construct: His6; purchased Boston Biochem E-546
T1 sequence (Q9UHP3 1-1055): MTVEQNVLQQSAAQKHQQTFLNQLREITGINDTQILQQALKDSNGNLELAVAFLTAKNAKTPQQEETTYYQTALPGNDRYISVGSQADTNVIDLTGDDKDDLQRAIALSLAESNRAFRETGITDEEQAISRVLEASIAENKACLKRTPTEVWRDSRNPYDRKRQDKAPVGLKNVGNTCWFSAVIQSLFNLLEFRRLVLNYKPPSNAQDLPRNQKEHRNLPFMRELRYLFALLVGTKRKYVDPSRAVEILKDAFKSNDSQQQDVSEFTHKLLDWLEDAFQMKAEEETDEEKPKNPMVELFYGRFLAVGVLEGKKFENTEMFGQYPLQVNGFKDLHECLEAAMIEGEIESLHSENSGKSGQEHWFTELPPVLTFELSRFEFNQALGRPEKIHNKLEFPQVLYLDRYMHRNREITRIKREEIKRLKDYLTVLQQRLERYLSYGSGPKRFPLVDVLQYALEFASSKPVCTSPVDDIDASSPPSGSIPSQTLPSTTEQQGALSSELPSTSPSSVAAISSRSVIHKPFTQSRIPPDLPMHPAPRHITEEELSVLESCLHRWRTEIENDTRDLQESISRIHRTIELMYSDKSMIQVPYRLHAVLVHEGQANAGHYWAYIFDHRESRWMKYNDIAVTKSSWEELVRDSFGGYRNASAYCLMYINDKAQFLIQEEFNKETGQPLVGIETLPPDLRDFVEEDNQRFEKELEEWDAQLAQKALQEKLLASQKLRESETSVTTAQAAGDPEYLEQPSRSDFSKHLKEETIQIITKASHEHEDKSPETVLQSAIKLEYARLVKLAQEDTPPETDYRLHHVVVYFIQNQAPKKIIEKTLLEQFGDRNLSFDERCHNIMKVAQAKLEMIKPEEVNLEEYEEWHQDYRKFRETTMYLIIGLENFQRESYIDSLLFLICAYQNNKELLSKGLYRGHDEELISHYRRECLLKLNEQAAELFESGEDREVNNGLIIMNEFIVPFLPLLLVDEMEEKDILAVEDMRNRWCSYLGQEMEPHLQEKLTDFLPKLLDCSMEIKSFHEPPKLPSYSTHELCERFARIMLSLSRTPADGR
Method in brief: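 Inhibition is quantified as IC50 by 4-parameter fit of fluorescence (485/535 nm) from Ub-Rh110 hydrolysis. Enzyme USP25-His6 at 75 pM with 30 min compound preincubation, then 25 nM substrate for 45 min at room temperature in pH 8.0 Tris buffer containing BME.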

**Q.** Cc1ccc2c(N)c(C(=O)N[C@H]3COc4cc(N5C[C@@H](N)[C@H](OC(F)(F)F)C5)ccc4C3)sc2n1 (single isomer, unassigned) [Example 3-9] was tested. Which pIC50 did it give?
**A.** 5.70 to 6.70

**Q.** How did the pIC50 turn out when Cc1ccc2c(N)c(C(=O)N[C@H]3COc4cc(N5C[C@H](OC(F)(F)F)[C@@H](N)C5)ccc4C3)sc2n1 (single isomer, unassigned) [Example 3-10] was run?
**A.** 5.70 to 6.70

**Q.** Cc1ccc2c(N)c(C(=O)N[C@H]3COc4c(cc(F)c(N5CCNCC5)c4F)C3)sc2n1 (single isomer, unassigned) [Example 3-17] was tested. Which pIC50 did it give?
**A.** 6.70 to 7.30

**Q.** How did the pIC50 turn out when Cc1ccc2c(N)c(C(=O)N[C@@H]3COc4c(cc(F)c(N5CCNCC5)c4F)C3)sc2n1 (single isomer, unassigned) [Example 3-18] was run?
**A.** < 5.70

**Q.** Cc1ccc2c(N)c(C(=O)N[C@H]3COc4cc(N5C[C@H](N)CC56COC6)ccc4C3)sc2n1 (single isomer, unassigned) [Example 351] was tested. Which pIC50 did it give?
**A.** 7.30 to 9.00

**Q.** How did the pIC50 turn out when Cc1ccc2c(N)c(C(=O)N[C@H]3COc4cc(N5C[C@@H](N)CC56COC6)ccc4C3)sc2n1 (single isomer, unassigned) [Example 352] was run?
**A.** 6.70 to 7.30

**Q.** With O=C(N[C@H]1CCc2c(c(F)cc(N3CC4CCC(C3)N4)c2C(F)F)C1)c1cnc2c(c1)[C@@H]1C[C@@H]1CN2 (single isomer, unassigned) [Example 359] as the compound, how does the pIC50 read?
**A.** < 5.70

**Q.** With O=C(N[C@H]1CCc2c(c(F)cc(N3CC4CCC(C3)N4)c2C(F)F)C1)c1cnc2c(c1)[C@H]1C[C@H]1CN2 (single isomer, unassigned) [Example 360] as the compound, how does the pIC50 read?
**A.** 5.70 to 6.70

**Q.** With O=C(N[C@@H]1CCc2c(c(F)cc(N3CC4CCC(C3)N4)c2C(F)F)C1)c1cnc2c(c1)[C@@H]1C[C@@H]1CN2 (single isomer, unassigned) [Example 361] as the compound, how does the pIC50 read?
**A.** < 5.70

**Q.** With O=C(N[C@@H]1CCc2c(c(F)cc(N3CC4CCC(C3)N4)c2C(F)F)C1)c1cnc2c(c1)[C@H]1C[C@H]1CN2 (single isomer, unassigned) [Example 362] as the compound, how does the pIC50 read?
**A.** 5.70 to 6.70

**Q.** Cc1ccc2c(N)c(C(=O)N[C@H]3COc4cc(N5C[C@H](N)[C@@H](F)C5)ccc4C3)sc2n1 [Example 3-7, 3-amino-N-((R)-7-((3S,4S)-3-amino-4-fluoropyrrolidin-1-yl)chroman-3-yl)-6-methylthieno[2,3-b]pyridine-2-carboxamide] was tested. Which pIC50 did it give?
**A.** 5.70 to 6.70

**Q.** Cc1ccc2c(N)c(C(=O)N[C@H]3COc4cc(N5C[C@@H](N)[C@H](F)C5)ccc4C3)sc2n1 [Example 3-8, 3-amino-N-((R)-7-((3R,4R)-3-amino-4-fluoropyrrolidin-1-yl)chroman-3-yl)-6-methylthieno[2,3-b]pyridine-2-carboxamide] was tested. Which pIC50 did it give?
**A.** 5.70 to 6.70

**Q.** Cc1ccc2c(N)c(C(=O)N[C@H]3COc4cc(N5CCN[C@@H](C(F)(F)F)C5)ccc4C3)sc2n1 [Example 3-11, 3-amino-6-methyl-N-((R)-7-((R)-3-(trifluoromethyl)piperazin-1-yl)chroman-3-yl)thieno[2,3-b]pyridine-2-carboxamide] was tested. Which pIC50 did it give?
**A.** 5.70 to 6.70

**Q.** Cc1ccc2c(N)c(C(=O)N[C@H]3COc4cc(N5CCN[C@H](C(F)(F)F)C5)ccc4C3)sc2n1 [Example 3-12, 3-amino-6-methyl-N-((R)-7-((S)-3-(trifluoromethyl)piperazin-1-yl)chroman-3-yl)thieno[2,3-b]pyridine-2-carboxamide] was tested. Which pIC50 did it give?
**A.** 5.70 to 6.70

**Q.** With Cc1ccc2c(N)c(C(=O)N[C@H]3COc4cc(N5CC[C@]6(CCCNC6)C5)ccc4C3)sc2n1 [Example 3-13, N-((R)-7-((S)-2,7-diazaspiro[4.5]decan-2-yl)chroman-3-yl)-3-amino-6-methylthieno[2,3-b]pyridine-2-carboxamide] as the compound, how does the pIC50 read?
**A.** 5.70 to 6.70

**Q.** How did the pIC50 turn out when Cc1ccc2c(N)c(C(=O)N[C@H]3COc4cc(N5CC[C@@]6(CCCNC6)C5)ccc4C3)sc2n1 [Example 3-14, N-((R)-7-((R)-2,7-diazaspiro[4.5]decan-2-yl)chroman-3-yl)-3-amino-6-methylthieno[2,3-b]pyridine-2-carboxamide] was run?
**A.** 6.70 to 7.30

**Q.** O=C(N[C@H]1COc2cc(N3CC4CCC(C3)N4)ccc2C1)c1cnc2c(c1)[C@@H]1C[C@@H]1CN2 [Example 3-15, (1aS,7bR)-N-((3R)-7-(3,8-diazabicyclo[3.2.l]octan-3-yl)chroman-3-yl)-1a,2,3,7b-tetrahydro-1H-cyclopropa[c][1,8]naphthyridine-6-carboxamide] was tested. Which pIC50 did it give?
**A.** 6.70 to 7.30

**Q.** How did the pIC50 turn out when O=C(N[C@H]1COc2cc(N3CC4CCC(C3)N4)ccc2C1)c1cnc2c(c1)[C@H]1C[C@H]1CN2 [Example 3-16, (1aR,7bS)-N-((3R)-7-(3,8-diazabicyclo[3.2.1]octan-3-yl)chroman-3-yl)-1a,2,3,7b-tetrahydro-1H-cyclopropa[c][1,8]naphthyridine-6-carboxamide] was run?
**A.** < 5.70

**Q.** How did the pIC50 turn out when Cc1ccc2c(N)c(C(=O)N[C@H]3COc4cc(N5CCC(F)(F)CC5)ccc4C3)sc2n1 [Example 5-1, (R)-3-amino-N-(7-(4,4-difluoropiperidin-1-yl)chroman-3-yl)-6-methylthieno[2,3-b]pyridine-2-carboxamide] was run?
**A.** 6.70 to 7.30

**Q.** Cc1ccc2c(N)c(C(=O)N[C@H]3COc4cc(N5CCS(=O)(=O)CC5)ccc4C3)sc2n1 [Example 5-2, (R)-3-amino-N-(7-(1,1-dioxidothiomorpholino)chroman-3-yl)-6-methylthieno[2,3-b]pyridine-2-carboxamide] was tested. Which pIC50 did it give?
**A.** 6.70 to 7.30

**Q.** Cc1ccc2c(N)c(C(=O)N[C@H]3COc4cc(N5CC(O)(C(F)(F)F)C5)ccc4C3)sc2n1 [Example 5-3, (R)-3-amino-N-(7-(3-hydroxy-3-(trifluoromethyl)azetidin-1-yl)chroman-3-yl)-6-methylthieno[2,3-b]pyridine-2-carboxamide] was tested. Which pIC50 did it give?
**A.** 5.70 to 6.70

**Q.** With Cc1ccc2c(N)c(C(=O)N[C@H]3COc4cc(N5CC6COCC(C5)C6(F)F)ccc4C3)sc2n1 [Example 5-4, 3-amino-N-((3R)-7-(9,9-difluoro-3-oxa-7-azabicyclo[3.3.1]nonan-7-yl)chroman-3-yl)-6-methylthieno[2,3-b]pyridine-2-carboxamide] as the compound, how does the pIC50 read?
**A.** 6.70 to 7.30

**Q.** How did the pIC50 turn out when Cc1ccc2c(N)c(C(=O)N[C@H]3COc4cc(N5CCC(C(=O)O)CC5)ccc4C3)sc2n1 [Example 6-1, (R)-1-(3-(3-Amino-6-methylthieno[2,3-b]pyridine-2-carboxamido)chroman-7-yl)piperidine-4-carboxylic Acid] was run?
**A.** < 5.70

**Q.** Cc1ccc2c(N)c(C(=O)N[C@H]3COc4cc(N5CC[C@@H](C(=O)O)C5)ccc4C3)sc2n1 [Example 6-2, (R)-1-((R)-3-(3-amino-6-methylthieno[2,3-b]pyridine-2-carboxamido)chroman-7-yl)pyrrolidine-3-carboxylic acid] was tested. Which pIC50 did it give?
**A.** < 5.70

**Q.** With Cc1ccc2c(N)c(C(=O)N[C@H]3COc4cc(N5CC[C@H](C(=O)O)C5)ccc4C3)sc2n1 [Example 6-3, (S)-1-((R)-3-(3-amino-6-methylthieno[2,3-b]pyridine-2-carboxamido)chroman-7-yl)pyrrolidine-3-carboxylic acid] as the compound, how does the pIC50 read?
**A.** < 5.70

**Q.** How did the pIC50 turn out when Cc1cnc2c(N)c(C(=O)N[C@H]3CCc4cc(N5CC(C(=O)O)C5)ccc4C3)sc2n1 [Example 6-4, (S)-1-(6-(7-amino-3-methylthieno[2,3-b]pyrazine-6-carboxamido)-5,6,7,8-tetrahydronaphthalen-2-yl)azetidine-3-carboxylic acid] was run?
**A.** < 5.70

**Q.** How did the pIC50 turn out when Cc1ccc2c(N)c(C(=O)N[C@H]3COc4cc(N5CCC(O)CC5)ccc4C3)sc2n1 [Example 7-1, (R)-3-amino-N-(7-(4-hydroxypiperidin-1-yl)chroman-3-yl)-6-methylthieno[2,3-b]pyridine-2-carboxamide] was run?
**A.** 5.70 to 6.70

**Q.** How did the pIC50 turn out when Cc1ccc2c(N)c(C(=O)N[C@H]3COc4cc(N5CCC[C@](C)(O)C5)ccc4C3)sc2n1 [Example 7-2] was run?
**A.** 5.70 to 6.70

**Q.** With Cc1ccc2c(N)c(C(=O)N[C@H]3COc4cc(N5CCC[C@@](C)(O)C5)ccc4C3)sc2n1 [Example 7-3, 3-amino-N-((R)-7-((R)-3-hydroxy-3-methylpiperidin-l-yl)chroman-3-yl)-6-methylthieno[2,3-b]pyridine-2-carboxamide] as the compound, how does the pIC50 read?
**A.** 5.70 to 6.70

**Q.** Cc1ccc2c(N)c(C(=O)N[C@H]3CCc4nc(N5C[C@H](N)[C@H](C(F)F)C5)ccc4C3)sc2n1 [Example 345, 3-amino-N-[(6S)-2-[(3R,4R)-3-amino-4-(difluoromethyl)pyrrolidin-1-yl]-5,6,7,8-tetrahydroquinolin-6-yl]-6-methylthieno[2,3-b]pyridine-2-carboxamide] was tested. Which pIC50 did it give?
**A.** 5.70 to 6.70

— US11524966B1 (Valo Early Discovery, Inc., priority 2017, dated 2022)
